Source: patent publication US8598159B2, “Therapeutic pyrazoloquinoline derivatives” (Dart Neuroscience (Cayman) Ltd., priority 2007, dated 2013)

Key:
[1] = system: GABAA receptors; experiment: Electrophysiology assay (two-electrode voltage clamp, Xenopus oocytes expressing GABAA receptors); format: cell-based; settings: positive (Pos) or negative (Neg) modulation of current at GABA EC20, screening concentration of 10 μM
Method: The modulation of GABAA function is determined by changes in current as determined in an electrophysiology assay, as is detailed below.
mRNA was prepared from lyophilized plasmid pellets containing cDNA inserts encoding the specific GABAA receptor subunit. cDNAs encoding the α2, α3, and γ3 subunits were subcloned into pBluescript, SK^−. cDNAs encoding the a 1 and a 5 subunits were subcloned into prC while cDNA encoding the β2 subunit was subcloned into pcDNA1. The cDNA construct encoding the g 2s subunit is in the pGH19 expression construct. Overnight cultures of transformed DH5a bacterial cells were performed to grow sufficient quantities for maxiprep isolation of the plasmid cDNA. The resulting plasmid cDNA was linearized by digestion with an appropriate restriction enzyme that cleaves distal to the cDNA insert [XbaI (α1, β2), NotI (α3, γ2 s), SacII (α2), or ApaI (α5)]. Following digestion, plasmid cDNA was treated with proteinase K and extracted with phenol/chloroform/isoamyl alcohol, followed by ethanol precipitation. cDNA quality was assessed by agarose-gel electrophoresis (1.5% agarose gel). Samples were stored at −20° C. until use. In vitro transcription was performed with T7 RNA polymerase. mRNA was then stored at −80° C. until use. Plasmids were linearized with appropriate restriction enzymes before in vitro transcription using the Message Machine kit (Ambion, Austin, Tex.).
GABAA receptor expression in Xenopus oocytes: Following 45 min of 0.15% Tricaine anesthesia, an ovarian section containing the follicular oocytes was removed from the frog through a lateral abdominal incision. Oocytes were immediately placed in a calcium-free solution (NaCl 96 mM, MgCl2 1 mM, KCl 2 mM, Hepes 50 mM, pyruvate 2.5 mM, gentamycin 100 μg/mL, penicillin-streptomycin 50 U/mL, pH 7.4). Following 1.5-2 hour incubation in 0.2% collagenase (type II, Sigma Chemical Co., St. Louis, Mo.) at room temperature, individual Dumont stage V and VI oocytes were transferred to an incubator and maintained overnight in Barth's solution (NaCl 84 mM, NaHCO3 2.4 mM, MgSO4 0.82 mM, KCl 1 mM, Ca(NO3)2 0.33 mM, CaCl2 0.41 mM, Tris/HCl 7.5 mM, pyruvate 2.5 mM, gentamycin 50 μg/mL, penicillin-streptomycin, 100 units/mL, pH 7.4) at 18-20° C. and used for experiments 1-5 days post-injection. Oocytes were injected solution using an electronic microinjector (Drummond, Broomall, Pa.) with 50 nL of RNA containing 0.3-0.5 ng of each subunit RNA in a 1:1:2 ratio. The injected oocytes were used for experiments after 1-5 days of incubation in Barth's solution at 18-20° C.
Measurements of ion currents from oocytes expressing GABAA receptors were performed using a Warner two-electrode voltage-clamp amplifier (Warner Instruments, Inc., Foster City, Calif.) (Park-Chung, M. A., et al. (1999) Brain Res. 830: 72-87 incorporated herein in its entirety). Microelectrodes were fabricated from borosilicate glass capillaries with a programmed pipette puller (Sutter Instrument Co., CA). Microelectrode resistance was 1-3 MΩ when filled with 3 M KCl. The oocyte recording chamber was continuously perfused with ND-96 solution. Oocytes were clamped at a holding potential of −70 mV during data acquisition. The membrane current was filtered at 10 Hz and sampled at 100 Hz. Compounds were applied by a gravity-driven external perfusion system. The working volume of the recording chamber was […] and the rate of the perfusion was approximately […]. Compound application was 20-25 sec followed by a minimum of 150 sec wash. Data acquisition and external perfusion was computer controlled by custom-developed software. All experiments were performed at room temperature (22-24° C.). Dose-response data from each oocyte were fitted to the Hill equation by non-linear regression using the equation: IGABA=Emax/(1+(EC50/c)nH)
Emax is the maximum response, EC50 is the concentration producing 50% of the maximal response, nH is the Hill coefficient and c is the concentration of agonist. […]

[2] = biological target: GABAA central benzodiazepine receptor; experiment: Benzodiazepine binding assay ((3H)-flunitrazepam displacement); settings: read-out: BZ binding assay (IC50); rat whole brain (except cerebellum), 1 nM (3H)-flunitrazepam, 60 minutes at 25° C.; 3-concentration dose response curve

Structure (SMILES): CN1CCN(c2c(F)cc3c4nn(-c5ccccc5)c(=O)c-4c[nH]c3c2F)CC1 [44b, 6,8-Difluoro-7-(4-methyl-piperazin-1-yl)-2-phenyl-2,5-dihydro-pyrazolo [4,3-c]quinolin-3-one]
- EP Result [1]: Pos
- IC50 [2]: < 1 µM

Structure (SMILES): O=c1c2c[nH]c3c(F)c(N4CCOCC4)c(F)cc3c-2nn1-c1ccccc1 [44c, 6,8-Difluoro-7-(morpholin-4-yl)-2-phenyl-2,5-dihydro-pyrazolo[4,3-c]quinolin-3-one]
- EP Result [1]: Pos
- IC50 [2]: < 1 µM

Structure (SMILES): COc1ccc(-n2nc3c4cc(F)c(N5CCN(C)CC5)c(F)c4[nH]cc-3c2=O)cc1 [44d, 6,8-Difluoro-2-(4-methoxyphenyl)-7-(4-methylpiperazin-1-yl)-2,5-dihydro-pyrazolo[4,3-c]quinolin-3-one]
- EP Result [1]: Pos
- IC50 [2]: < 1 µM
